# US4011327A (priority 1975, dated 1977)
# “And” between values parts separate entries of the source, which are not always exact repeats. Equal entries are not always repeated. Where two headings read alike, the source gives them in different places.
# Columns and labels:
# Format in all cases: cell-based
# [1] = system: Histoplasma capsulatum; test: microbe, parasite or virus in culture; settings: for weekly increments of the diameter of colony: duplicates a, b; for MIC: Histoplasma capsulatum
# [2] = system: Sporotrichum schenckii; test: Antifungal activity in vitro, mycelial growth on Sabouraud dextrose agar; settings: for weekly increments of the diameter of colony: duplicates a, b; for MIC: Sporothrix schenckii
# [3] = system: Blastomyces dermatitidis; test: as above; settings: for weekly increments of the diameter of colony: duplicates a, b; for MIC: Blastomyces dermatitidis
# [4] = system: Trichophyton rubrum; test: as above; settings: for weekly increments of the diameter of colony: duplicates a, b; for MIC: Trichophyton rubrum
# [5] = 336 h, read-out: minimum in vitro inhibitory concentration
# [6] = 336 h, two week period, read-out: minimum in vitro inhibitory concentration
smiles,measurement,setting,value
"CSC1(C)CCC2C(C)CCC(c3ccoc3)N2C1O (single isomer, unassigned) [Example 7-MTDOL, 7β-methylthiodeoxynupharidin-6α-ol]",weekly increments of the diameter of colony,"[1]; 10 mcg/ml, week 2, No. 1106, 25° C",15 mm and 10 mm
same,weekly increments of the diameter of colony,"[1]; 10 mcg/ml, week 3, No. 1106, 25° C",25 mm and 29 mm
same,weekly increments of the diameter of colony,"[1]; 20 mcg/ml, week 1, No. 1106, 25° C",0 mm
same,weekly increments of the diameter of colony,"[1]; 20 mcg/ml, week 3, No. 1106, 25° C",10 mm and 5 mm
same,weekly increments of the diameter of colony,"[1]; 40 mcg/ml, week 1, No. 1106, 25° C",0 mm
same,weekly increments of the diameter of colony,"[1]; 60 mcg/ml, week 1, No. 1106, 25° C",0 mm
same,weekly increments of the diameter of colony,"[1]; 60 mcg/ml, week 2, No. 1106, 25° C",0 mm
same,weekly increments of the diameter of colony,"[1]; 60 mcg/ml, week 3, No. 1106, 25° C",0 mm
same,weekly increments of the diameter of colony,"[1]; 80 mcg/ml, week 1, No. 1106, 25° C",0 mm
same,weekly increments of the diameter of colony,"[1]; 80 mcg/ml, week 2, No. 1106, 25° C",0 mm
same,weekly increments of the diameter of colony,"[1]; 80 mcg/ml, week 3, No. 1106, 25° C",0 mm
same,weekly increments of the diameter of colony,"[1]; 100 mcg/ml, week 1, No. 1106, 25° C",0 mm
same,weekly increments of the diameter of colony,"[1]; 100 mcg/ml, week 2, No. 1106, 25° C",0 mm
same,weekly increments of the diameter of colony,"[1]; 100 mcg/ml, week 3, No. 1106, 25° C",0 mm
same,MIC,[1]; [5],40 µg/mL
same,MIC,"[1]; 504 h, read-out: concentration inhibiting mycelial growth",40 µg/mL
same,weekly increments of the diameter of colony,"[2]; 10 mcg/ml, week 1, No. 1109, 25° C",11 mm and 10 mm
same,weekly increments of the diameter of colony,"[2]; 10 mcg/ml, week 2, No. 1109, 25° C",25 mm and 24 mm
same,weekly increments of the diameter of colony,"[2]; 20 mcg/ml, week 2, No. 1109, 25° C",20 mm
same,weekly increments of the diameter of colony,"[2]; 20 mcg/ml, week 3, No. 1109, 25° C",31 mm and 29 mm
same,weekly increments of the diameter of colony,"[2]; 40 mcg/ml, week 2, No. 1109, 25° C, a: colony overgrown by adjacent culture",18 mm and 15 mm
same,weekly increments of the diameter of colony,"[2]; 40 mcg/ml, week 3, No. 1109, 25° C, a: colony overgrown by adjacent culture",18 mm and 25 mm
same,weekly increments of the diameter of colony,"[2]; 60 mcg/ml, week 1, No. 1109, 25° C",0 mm
same,weekly increments of the diameter of colony,"[2]; 60 mcg/ml, week 2, No. 1109, 25° C",10 mm
same,weekly increments of the diameter of colony,"[2]; 60 mcg/ml, week 3, No. 1109, 25° C",20 mm
same,weekly increments of the diameter of colony,"[2]; 80 mcg/ml, week 1, No. 1109, 25° C",0 mm
same,weekly increments of the diameter of colony,"[2]; 80 mcg/ml, week 2, No. 1109, 25° C",0 mm
same,weekly increments of the diameter of colony,"[2]; 100 mcg/ml, week 1, No. 1109, 25° C",0 mm
same,weekly increments of the diameter of colony,"[2]; 100 mcg/ml, week 2, No. 1109, 25° C",0 mm
same,weekly increments of the diameter of colony,"[2]; 100 mcg/ml, week 3, No. 1109, 25° C",0 mm
same,MIC,[2]; [6],100 µg/mL
same,MIC,"[2]; 504 h, up to the end of 3 weeks, Sabouraud dextrose agar, read-out: concentration inhibiting growth",100 µg/mL
same,weekly increments of the diameter of colony,"[3]; 10 mcg/ml, week 1, No. 1107, 25° C",14 mm
same,weekly increments of the diameter of colony,"[3]; 10 mcg/ml, week 2, No. 1107, 25° C",20 mm and 21 mm
same,weekly increments of the diameter of colony,"[3]; 10 mcg/ml, week 3, No. 1107, 25° C",35 mm and 32 mm
same,weekly increments of the diameter of colony,"[3]; 20 mcg/ml, week 1, No. 1107, 25° C",10 mm
same,weekly increments of the diameter of colony,"[3]; 20 mcg/ml, week 2, No. 1107, 25° C",16 mm and 15 mm
same,weekly increments of the diameter of colony,"[3]; 20 mcg/ml, week 3, No. 1107, 25° C",17 mm and 18 mm
same,weekly increments of the diameter of colony,"[3]; 40 mcg/ml, week 1, No. 1107, 25° C",7 mm and 6 mm
same,weekly increments of the diameter of colony,"[3]; 40 mcg/ml, week 2, No. 1107, 25° C",15 mm
same,weekly increments of the diameter of colony,"[3]; 40 mcg/ml, week 3, No. 1107, 25° C",20 mm and 28 mm
same,weekly increments of the diameter of colony,"[3]; 60 mcg/ml, week 1, No. 1107, 25° C",0 mm
same,weekly increments of the diameter of colony,"[3]; 60 mcg/ml, week 2, No. 1107, 25° C",5 mm
same,weekly increments of the diameter of colony,"[3]; 60 mcg/ml, week 3, No. 1107, 25° C",5 mm and 7 mm
same,weekly increments of the diameter of colony,"[3]; 80 mcg/ml, week 1, No. 1107, 25° C",0 mm
same,weekly increments of the diameter of colony,"[3]; 80 mcg/ml, week 2, No. 1107, 25° C",0 mm
same,weekly increments of the diameter of colony,"[3]; 100 mcg/ml, week 1, No. 1107, 25° C",0 mm
same,MIC,[3]; [6],80 µg/mL
same,MIC,"[3]; 504 h, up to the end of 3 weeks, Sabouraud dextrose agar, read-out: concentration inhibiting mycelial growth",80 µg/mL
same,weekly increments of the diameter of colony,"[4]; 10 mcg/ml, week 1, No. 1112, 25° C",10 mm and 11 mm
same,weekly increments of the diameter of colony,"[4]; 10 mcg/ml, week 2, No. 1112, 25° C, colony overgrown by adjacent culture",20 mm
same,weekly increments of the diameter of colony,"[4]; 10 mcg/ml, week 3, No. 1112, 25° C, colony overgrown by adjacent culture",22 mm and 25 mm
same,weekly increments of the diameter of colony,"[4]; 20 mcg/ml, week 1, No. 1112, 25° C",8 mm and 7 mm
same,weekly increments of the diameter of colony,"[4]; 20 mcg/ml, week 2, No. 1112, 25° C",21 mm and 20 mm
same,weekly increments of the diameter of colony,"[4]; 20 mcg/ml, week 3, No. 1112, 25° C, b: colony overgrown by adjacent culture",30 mm and 22 mm
same,weekly increments of the diameter of colony,"[4]; 40 mcg/ml, week 1, No. 1112, 25° C",8 mm and 6 mm
same,weekly increments of the diameter of colony,"[4]; 40 mcg/ml, week 2, No. 1112, 25° C",20 mm and 18 mm
same,weekly increments of the diameter of colony,"[4]; 40 mcg/ml, week 3, No. 1112, 25° C",30 mm and 26 mm
same,weekly increments of the diameter of colony,"[4]; 60 mcg/ml, week 2, No. 1112, 25° C",8 mm and 6 mm
same,weekly increments of the diameter of colony,"[4]; 60 mcg/ml, week 3, No. 1112, 25° C",14 mm and 15 mm
same,weekly increments of the diameter of colony,"[4]; 80 mcg/ml, week 1, No. 1112, 25° C",0 mm
same,weekly increments of the diameter of colony,"[4]; 80 mcg/ml, week 2, No. 1112, 25° C",5 mm
same,weekly increments of the diameter of colony,"[4]; 80 mcg/ml, week 3, No. 1112, 25° C",9 mm and 6 mm
same,weekly increments of the diameter of colony,"[4]; 100 mcg/ml, week 3, No. 1112, 25° C",6 mm and 7 mm
same,MIC,[4]; [5],100 µg/mL
same,MIC,"[4]; 504 h, read-out: concentration inhibiting growth",100 µg/mL
